Results taken from publication PMC5071857, “A unique peptide deformylase platform to rationally design and challenge novel active compounds” (Scientific Reports, 2016).
Read-outs that look alike come from different tables or passages of the source.

Assays:
[1] = test system: S. aureus SA113; assay: MIC, S. aureus SA113; type: cell-based; settings: Staphylococcus aureus
Excerpt: (§1) Two E. coli strains, one B. subtilis strain, one S. aureus strain, one E. faecalis strain, one S. agalactiae strain and three Enterobacter aerogenes strains previously described were used. Briefly, AG100 was an E. coli wild type strain and AG100A its acrAB^- derivative. EA289 was a Kan^s derivative of an E. aerogenes multi-drug resistant (MDR) clinical isolate overexpressing AcrAB-TolC efflux pumps, and EA294 and EA298 its acrAB^- and tolC^- derivatives respectively. Strains were routinely grown at 37 °C on Luria-Bertani (LB) agar or in Mueller-Hinton II broth (MH), supplemented with kanamycine (50 μg.mL^−1) for AG100A, EA294 and EA298.
(§2) MIC values of antibiotics were determined by the microdilution method in liquid MH media in microplates in the absence or presence of chemosensitizers/modulators (e.g. PMBN, PAβN), as previously described. Permeabilization, blocking of efflux pumps, and isolates with different levels of porin or efflux expression were used to assess the involvement of the membrane barrier in antibiotic activity.
(§3) Susceptibilities were determined in 96-wells microplates with an inoculum of 2 × 10^5 cfu in 200 μL of MH broth containing two-fold serial dilutions of each antibiotics or compounds. Molecules were tested alone or in combination with other molecules in equimolar ratio. MICs were realized in the absence and in the presence of a membrane permeabilizer, the polymyxine B nonapeptide (PMBN) used at 51.2 mg/L (1/5 or 1/10 of its direct MIC previously determined). Actinonin and ciprofloxacin were used as internal antibiotic reference. […] Each test was systematically performed in triplicate. The average of three independent assays is presented in μg/mL in the respective tables.

[2] = test system: E. faecalis EFA 103.214; assay: MIC, E. faecalis EFA 103.214; type: cell-based
Excerpt: as §1, §2, §3

[3] = test system: E. coli AG100A (AcrAB- derivative); assay: MIC by microdilution, E. coli AG100A; type: cell-based; settings: for MIC: Escherichia coli, 18 h, read-out: MIC AG100A; for MIC AG100A: with PMBN at 1/5 of its MIC, 18 h at 37 °C, average of three assays
Excerpt: as §1, §2, §3

[4] = target: T1, EcPDF (Escherichia coli, UniProt P0A6K3); assay: PDF inhibition, formate dehydrogenase-coupled spectrophotometric assay (EcPDF); type: biochemical
T1 construct: made in house
T1 sequence (P0A6K3 whole entry): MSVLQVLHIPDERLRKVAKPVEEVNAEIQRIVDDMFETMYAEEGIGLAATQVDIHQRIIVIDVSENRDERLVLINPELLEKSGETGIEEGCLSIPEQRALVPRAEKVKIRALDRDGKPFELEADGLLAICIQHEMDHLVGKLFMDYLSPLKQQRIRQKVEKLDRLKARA
Procedure: (§4) The formate released by the deformylation reaction is used by FDH to convert NAD in NADH, the production of which being measured over time at 340 nm and controlled temperature (37 °C). The 200 μL reaction mixture contained 50 mM HEPES-NaOH pH7.5, 12 mM NAD^+, 4.5 U/mL FDH, 1 mM NiCl2 and PDF enzyme (either 40 nM SaPDF or 10 nM EcPDF or 100 nM AtPDF1B) previously diluted in presence of 0.1 mg/mL BSA. The reaction was started by addition of 1–6 mM Fo-Met-Ala-Ser. Kinetics parameters (kcat, Km) were derived from iterative non-linear least square fits using the Michaelis-menten equation based on the experimental data (Sigma-Plot, Kinetics module).
(§5) 1/KI*app is the slope of the v0/vi curve in function of compound concentration, where v0 and vi are the initial reaction rates in absence and presence of compound, respectively.
(§6) Determination of KI values was performed with a slightly modified protocol: reaction was started by addition of enzyme instead of Fo-Met-Ala-Ser, the latter being directly added to the mixture containing increasing concentrations of each compound. No pre-incubation of enzyme in presence of compound was done. 1/KI is the slope of the v0/vi curve in function of compound concentration, where v0 and vi are the initial reaction rates in absence and presence of compound respectively.

[5] = test system: E. coli AG100; assay: MIC by microdilution, E. coli AG100; type: cell-based; settings: 18 h at 37 °C, average of three assays; for MIC: Escherichia coli, AG100, without PMBN; for MIC AG100: with PMBN at 1/5 of its MIC
Excerpt: as §1, §2, §3

[6] = test system: E. aerogenes Ea289, MDR strain; assay: MIC by microdilution, E. aerogenes Ea289; type: cell-based, Enterobacter aerogenes; settings: for MIC Ea289: +PMBN at 1/5 of its MIC, average of three assays; for MIC: Klebsiella aerogenes, 18 h, read-out: MIC Ea289
Excerpt: as §1, §2, §3

[7] = test system: E. aerogenes Ea298, Ea289 derivative tolC-; assay: MIC by microdilution, E. aerogenes Ea298; type: cell-based, Enterobacter aerogenes; settings: for MIC Ea298: +PMBN at 1/5 of its MIC, average of three assays; for MIC: Klebsiella aerogenes, 18 h, read-out: MIC Ea298
Excerpt: as §1, §2, §3

[8] = test system: E. aerogenes Ea294, Ea289 derivative AcrAB-; assay: MIC by microdilution, E. aerogenes Ea294; type: cell-based, Enterobacter aerogenes; settings: for MIC Ea294: +PMBN at 1/5 of its MIC, average of three assays; for MIC: Klebsiella aerogenes, 18 h, read-out: MIC Ea294
Excerpt: as §1, §2, §3

[9] = target: T2, SaPDF (Streptococcus agalactiae serotype III, UniProt Q8E378, S2A); assay: biochemical; settings: SaPDF KI*app, PDFI pre-incubated with enzyme 10 min at 37 °C, started by 2 mM Fo-Met-Ala-Ser; 40 nM SaPDF
T2 construct: the recombinant protein contains all residues of the 204 amino acids mature protein; made in house; host or cells: E. coli Rosetta 2(DE3)pLysS
T2 sequence (Q8E378 whole entry S2A): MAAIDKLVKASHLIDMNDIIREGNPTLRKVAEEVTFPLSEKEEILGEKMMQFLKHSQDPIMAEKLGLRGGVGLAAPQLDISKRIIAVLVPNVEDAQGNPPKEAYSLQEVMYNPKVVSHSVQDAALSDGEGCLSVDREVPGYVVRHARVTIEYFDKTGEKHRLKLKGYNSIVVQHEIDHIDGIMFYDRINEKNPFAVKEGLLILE

[10] = target: T2, SaPDF; assay: biochemical; settings: for Ki: SaPDF KI, no pre-incubation, assay initiated by addition of enzyme, 40 nM SaPDF, 37 °C; for SaPDF KI/KI*app: enhancement potency (slow tight-binding)
Procedure: as §4, with “Enzymatic activity was measured by a spectrophotometric assay where peptide deformylase activity is coupled to that of formate dehydrogenase. The formate” for “The formate”
as §5, §6

[11] = target: T3, AtPDF1B (Arabidopsis thaliana, UniProt Q9FUZ2); assay: PDF inhibition, formate dehydrogenase-coupled spectrophotometric assay (AtPDF1B); type: biochemical; settings: 100 nM AtPDF1B; for IC50: 2 mM Fo-Met-Ala-Ser, 10 min pre-incubation at 37 °C; for Ki: PDFI pre-incubated with enzyme 10 min at 37 °C, read-out: AtPDF1B KI*app
T3 construct: made in house
T3 sequence (Q9FUZ2 83-273): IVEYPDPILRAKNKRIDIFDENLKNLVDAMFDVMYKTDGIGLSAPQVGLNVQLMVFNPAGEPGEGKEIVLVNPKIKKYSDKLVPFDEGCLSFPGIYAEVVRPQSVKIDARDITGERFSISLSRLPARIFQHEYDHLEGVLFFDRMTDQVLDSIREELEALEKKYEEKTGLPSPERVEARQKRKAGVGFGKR
Procedure: as §4, with “Enzymatic activity was measured by a spectrophotometric assay where peptide deformylase activity is coupled to that of formate dehydrogenase. The formate” for “The formate”
as §5, §6

[12] = Enterococcus faecalis, EFA103.214, read-out: MIC E. faecalis EFA 103.214
[13] = 10 nM EcPDF, 2 mM Fo-Met-Ala-Ser, 10 min pre-incubation at 37 °C, read-out: IC50 EcPDF
[14] = PDFI pre-incubated with enzyme 10 min at 37 °C, started by 2 mM Fo-Met-Ala-Ser, 10 nM EcPDF, read-out: EcPDF KI*app
[15] = EcPDF KI*app, PDFI pre-incubated with enzyme 10 min at 37 °C, started by 2 mM Fo-Met-Ala-Ser, 10 nM EcPDF

SMILES | MIC [1] [µg/mL] | MIC [2, 12] [µg/mL] | MIC [3] [µg/mL] | MIC AG100A [3] [µg/mL] | IC50 [4, 13] [nM] | MIC [5] [µg/mL] | MIC AG100 [5] [µg/mL] | Ki [9] [nM] | IC50 [10] [nM] | other results
CCCC[C@H](CC(=O)NO)c1nc(-c2ccccc2)co1 [AT003] | > 64 | > 64 | > 64 | 16 | 190 | > 64 | 64 | – | – | –
CC(C)(O/N=C(\C(=O)N[C@@H]1C(=O)N2C(C(=O)[O-])=C(C[n+]3ccccc3)CS[C@H]12)c1csc(N)n1)C(=O)O [Ceftazidim, ceftazidime, reference compound] | – | – | – | – | – | – | – | – | – | MIC Ea289 [6]: 64 µg/mL; MIC [6]: > 128 µg/mL; MIC Ea298 [7]: 64 µg/mL; MIC [7]: > 128 µg/mL; MIC Ea294 [8]: 64 µg/mL; MIC [8]: > 128 µg/mL
O=C(N[C@H](CO)[C@H](O)c1ccc([N+](=O)[O-])cc1)C(Cl)Cl [Chloramphenicol, chloramphenicol, reference compound] | – | – | – | – | – | – | – | – | – | MIC Ea289 [6]: 8 µg/mL; MIC [6]: > 128 µg/mL; MIC Ea298 [7]: 4 µg/mL; MIC [7]: 32 µg/mL; MIC Ea294 [8]: 4 µg/mL; MIC [8]: 32 µg/mL
CCCCC(CC(=O)NO)c1nc(Cc2ccc3c(c2)OCO3)no1 (stereo not shown) [AT016] | > 64 | – | 64 | 8 | 10 ± 1 | > 64 | 64 | 55 ± 5 | 10 ± 2 | MIC ([2]; Enterococcus faecalis, EFA103.214; read-out: MIC E. faecalis EFA 103.214): > 64 µg/mL; Ki [4, 14]: 26 ± 5 nM; EcPDF KI/KI*app ([4]; enhancement potency (slow tight-binding)): 1; Ki ([4]; no pre-incubation, assay initiated by addition of enzyme, 10 nM EcPDF, 37 °C, read-out: EcPDF KI): 25 ± 3 nM; Ki [10]: 67 ± 7 nM; SaPDF KI/KI*app [10]: 1
CCCC[C@H](CC(=O)NO)c1nc(Cc2ccc(C(=O)O)cc2)no1 [AT021] | – | – | – | – | – | – | – | 200 ± 10 | 211 ± 10 | IC50 [4]: 75 ± 2 nM; Ki [4, 15]: 76 ± 5 nM; IC50 [11]: 8200 ± 1000 nM; Ki [11]: ~10000 nM
CCCCC(CC(=O)NO)c1nc(Cc2nc3ccccc3s2)no1 (stereo not shown) [AT017] | > 64 | > 64 | 64 | 8 | 30 ± 8 | > 64 | 64 | 85 ± 8 | 23 ± 4 | Ki [4, 14]: 41 ± 3 nM
CCCCC(CC(=O)NO)c1nc(Cc2ccc(C)cc2)no1 (stereo not shown) [AT012] | > 64 | > 64 | 64 | 8 | – | > 64 | 32 | 400 ± 35 | 67 ± 5 | IC50 [4]: 27 ± 3 nM; Ki [4, 15]: 70 ± 8 nM; IC50 [11]: 460 ± 22 nM; Ki ([11]; started by 2 mM Fo-Met-Ala-Ser): 625 ± 30 nM
CCCCC(CC(=O)NO)c1nc(-c2ccc([N+](=O)[O-])cc2)no1 (stereo not shown) [AT001] | – | – | > 64 | 32 | 160 | > 64 | >64 | – | – | –
CCCCC(CC(=O)NO)c1nc(Cc2ccc(-c3ccccc3)cc2)no1 (stereo not shown) [AT014] | > 64 | > 64 | > 64 | 64 | – | > 64 | 64 | 65 ± 10 | 16 ± 2 | IC50 [4]: 25 ± 4 nM; Ki [4, 15]: 66 ± 3 nM; IC50 [11]: 550 ± 25 nM; Ki ([11]; started by 2 mM Fo-Met-Ala-Ser): 909 ± 32 nM; Ki [10]: 84 ± 6 nM; SaPDF KI/KI*app [10]: 1
CCCCC(CC(=O)NO)c1nc(-c2ccccc2)no1 (stereo not shown) [AT006] | > 64 | > 64 | > 64 | 32 | 155 | > 64 | 64 | – | – | –
CCCCC(CC(=O)NO)c1nc(C(=O)OCC)co1 (stereo not shown) [AT004] | > 64 | > 64 | > 64 | 32 | 110 | > 64 | >64 | – | – | –
